Test results: PMC12084297, “Cytoplasmic connexin43-microtubule interactions promote glioblastoma stem-like cell maintenance and tumorigenicity” (Cell Death & Disease, 2025)

Legend:
[1] = tested on: VTC-034 GSCs; assay: Caspase 3/7 activity, VTC-034 GSCs; format: cell-based, human; settings: VTC-034 adherent GSCs, 10, 50 or 100 μM, 48 h, Caspase-Glo 3/7
Procedure: (§1) Cells were plated in 96-well plates (2000–5000 cells per well) and treated the following day with TMZ (10, 50, or 100 μM), antennapedia, JM2-scrambled, or JM2 (10, 50, or 100 μM). After 4 days, cell viability was monitored following addition of MTS reagent (Promega) according to manufacturer’s instructions. The absorbance at 490 nm was measured using a SpectraMax i3 or iD3 microplate reader (Molecular Devices). For the caspase 3/7 activity assay, cells were plated in 96-well plates (2000 cells per well) and treated with TMZ or peptides as described above. The activity of caspase 3/7 was measured after 48 h using the Caspase-Glo® 3/7 assay (Promega) following the manufacturer’s instructions. Fold change of caspase 3/7 activity was defined as the ratio of caspase 3/7 luminescence in treated cells compared to controls.

[2] = tested on: VTC-001 GSCs; assay: MTS viability, VTC-001 GSCs; format: cell-based, human; settings: VTC-001 adherent GSCs, TMZ 50 μM, 4 days
Procedure: as §1

[3] = tested on: newly diagnosed GBM patients; settings: surgical resection, radiotherapy, and chemotherapy with temozolomide, ref [1]-[3]; cited from earlier work
From the text: Glioblastoma (GBM) is a highly malignant and lethal cancer of the central nervous system. The current multimodal therapy for newly diagnosed GBM patients includes surgical resection, radiotherapy, and chemotherapy with temozolomide (TMZ), conferring a median survival of only 14.6 months, with recent results from phase 3 clinical trials showing an extension up to 20 months, although using more stringent inclusion criteria that limit generalizability.

[4] = tested on: VTC-037 GSCs; assay: MTS viability, VTC-037 GSCs; format: cell-based, human; settings: VTC-037 adherent GSCs, TMZ 50 μM, 4 days
Procedure: as §1

Cn1nnc2c(C(N)=O)ncn2c1=O [TMZ, temozolomide, reference compound]
Apoptosis induction (caspase 3/7 activity) [1]: inefficient in inducing apoptosis | GSC viability with TMZ alone (MTS) [2]: resistant to TMZ treatment | Median survival [3]: 14.6 months | GSC viability with TMZ alone (MTS) [4]: resistant to TMZ treatment
